# Assay results from ChEMBL document CHEMBL1129406, “Sustained decrease in cocaine-maintained responding in rhesus monkeys with 1-[2-[bis(4-fluorophenyl)methoxy]ethyl]-4-(3-hydroxy-3-phenylpropyl) piperazinyl decanoate, a long-acting ester derivative of GBR 12909” (1996).
# Columns and labels:
# Assay type in all cases: functional, Cercopithecidae
# [1] = test system: Monkey; assay: Effect of compound on rate of response maintained by food (3.696 resp/s, +/-9.99%) in monkeys
# [2] = test system: Monkey; assay: Effect of compound on rate of response maintained by cocaine (4.026 resp/s,+/-13.6%) in monkeys
# [3] = test system: Monkey; assay: Effect of compound on rate of response maintained by food (3.696 resp/s, +/-9.99%) in monkeys at a dose of 3 mL
# [4] = test system: Monkey; assay: Effect of compound on rate of response maintained by cocaine (4.026 resp/s,+/-13.6%) in monkeys at a dose of 6 mL
# [5] = test system: Monkey; assay: Effect of compound on rate of response maintained by cocaine (4.026 resp/s,+/-13.6%) in monkeys at a dose of 3 mL
smiles,measurement,setting,value
CCCCCCCCCC(=O)OC(CCN1CCN(CCOC(c2ccc(F)cc2)c2ccc(F)cc2)CC1)c1ccccc1 (stereo not given),Control,[1],97%
same,Control,[2],76.2%
same,Control,[3],82%
same,Control,[4],25.3%
same,Control,[5],74%
